Source: EP3717657B1, “A SYSTEM FOR ASSESSING MICROBIAL SUSCEPTIBILITY TO ANTIBIOTIC AGENTS” (Ascilion AB, priority 2017, dated 2019)
≈ marks a conversion by molar mass, not a printed value.

Experiments:
[1] = tested on: Escherichia coli (ATCC 25922); assay: Antibiotic susceptibility by glucose consumption in culture medium, blood culture bottle inoculum (Example 1); type: cell-based; conditions: for Glucose concentration t=0: 0 minutes; for Glucose concentration t=60: 60 minutes; for Glucose concentration t=120: 120 minutes; for Glucose concentration t=180: 180 minutes; for dC/dT: rate of change in glucose concentration; for Glucose concentration t=240: 240 minutes;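 for dC/dT: rate calculated between the 60 and 180 min readings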
Method: (§1) Strains of Escherichia coli (ATCC 25922), Enterococcus faecalis (ATCC 29212) and Staphylococcus aureus (ATCC 29213) were inoculated in blood culture bottles (SVA, Uppsala, Sweden) and cultivated according to the manufacturer's instructions until positive.
(§2) Medium from each blood culture bottle was diluted 1:100 with cation adjusted Mueller-Hinton broth (SVA, Uppsala, Sweden) supplemented with glucose to a concentration of 1.0 mg/mL.
(§3) Table 1: Concentrations of antibiotic agents are given in µg/mL.
(§4) Glucose concentrations were measured at 0, 60, 120, 180, and 240 minutes using a WaveSense Jazz glucometer (AgaMatrix, Inc., Salem, NH, USA) with accompanying test strips.
(§5) Susceptibility scores corresponding to MIC values were calculated as described above. A 80% threshold was applied, i.e. the lowest concentration of antibiotic that entailed a rate of change in glucose concentration that was equal to or less than 80% of the reference was selected as the Minimal Inhibitory Concentration. The rate of change was calculated between the measurements at 60 and 180 minutes.

[2] = tested on: Staphylococcus aureus (ATCC 29213); assay: as above; type: cell-based; conditions: for Glucose concentration t=0: 0 minutes; for Glucose concentration t=60: 60 minutes; for Glucose concentration t=120: 120 minutes; for Glucose concentration t=180: 180 minutes; for Glucose concentration t=240: 240 minutes; for dC/dT: rate of change in glucose concentration;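 for dC/dT: rate calculated between the 60 and 180 min readings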
Method: as §1, §2, §3, §4, §5

SMILES: CO[C@@]1(NC(=O)Cc2cccs2)C(=O)N2C(C(=O)O)=C(COC(N)=O)CS[C@@H]21 [Cefoxitin]
- MIC ([1]; Escherichia coli, ATCC25922, E.coli, 80% threshold of rate of change vs reference, between 60 and 180 minutes, obtained in 4 hours, read-out: MIC Measured): 4 µg/mL (≈ 9.36 µM)
- F=the rate of change in glucose concentration in relation to the reference ([1]; [Ab] 0,5 µg/mL): 139%
- Glucose concentration t=0 ([1]; [Ab] 0,5 µg/mL): 139
- Glucose concentration t=60 ([1]; [Ab] 0,5 µg/mL): 154
- Glucose concentration t=120 ([1]; [Ab] 0,5 µg/mL): 140
- Glucose concentration t=180 ([1]; [Ab] 0,5 µg/mL): 54
- dC/dT ([1]; [Ab] 0,5 µg/mL): 86
- F=the rate of change in glucose concentration in relation to the reference ([1]; [Ab] 0,25 µg/mL): 165%
- Glucose concentration t=0 ([1]; [Ab] 0,25 µg/mL): 145
- Glucose concentration t=60 ([1]; [Ab] 0,25 µg/mL): 157
- Glucose concentration t=120 ([1]; [Ab] 0,25 µg/mL): 143
- Glucose concentration t=180 ([1]; [Ab] 0,25 µg/mL): 41
- dC/dT ([1]; [Ab] 0,25 µg/mL): 102
- F=the rate of change in glucose concentration in relation to the reference ([1]; [Ab] 1 µg/mL): 129%
- Glucose concentration t=0 ([1]; [Ab] 1 µg/mL): 144
- Glucose concentration t=60 ([1]; [Ab] 1 µg/mL): 150
- Glucose concentration t=120 ([1]; [Ab] 1 µg/mL): 143
- Glucose concentration t=180 ([1]; [Ab] 1 µg/mL): 63
- dC/dT ([1]; [Ab] 1 µg/mL): 80
- F=the rate of change in glucose concentration in relation to the reference ([1]; [Ab] 2 µg/mL): 102%
- Glucose concentration t=0 ([1]; [Ab] 2 µg/mL): 143
- Glucose concentration t=60 ([1]; [Ab] 2 µg/mL): 163
- Glucose concentration t=120 ([1]; [Ab] 2 µg/mL): 138
- Glucose concentration t=180 ([1]; [Ab] 2 µg/mL): 75
- dC/dT ([1]; [Ab] 2 µg/mL): 63
- F=the rate of change in glucose concentration in relation to the reference ([1]; [Ab] 4 µg/mL): 19%
- Glucose concentration t=0 ([1]; [Ab] 4 µg/mL): 146
- Glucose concentration t=60 ([1]; [Ab] 4 µg/mL): 149
- Glucose concentration t=120 ([1]; [Ab] 4 µg/mL): 140
- Glucose concentration t=180 ([1]; [Ab] 4 µg/mL): 125
- Glucose concentration t=240 ([1]; [Ab] 4 µg/mL): 116
- dC/dT ([1]; [Ab] 4 µg/mL): 12
- F=the rate of change in glucose concentration in relation to the reference ([1]; [Ab] 8 µg/mL): 18%
- Glucose concentration t=0 ([1]; [Ab] 8 µg/mL): 145
- Glucose concentration t=60 ([1]; [Ab] 8 µg/mL): 164
- Glucose concentration t=120 ([1]; [Ab] 8 µg/mL): 149
- Glucose concentration t=180 ([1]; [Ab] 8 µg/mL): 132
- Glucose concentration t=240 ([1]; [Ab] 8 µg/mL): 127
- dC/dT ([1]; [Ab] 8 µg/mL): 11
- F=the rate of change in glucose concentration in relation to the reference ([1]; [Ab] 16 µg/mL): 6%
- Glucose concentration t=0 ([1]; [Ab] 16 µg/mL): 142
- Glucose concentration t=60 ([1]; [Ab] 16 µg/mL): 152
- Glucose concentration t=120 ([1]; [Ab] 16 µg/mL): 152
- Glucose concentration t=180 ([1]; [Ab] 16 µg/mL): 141
- Glucose concentration t=240 ([1]; [Ab] 16 µg/mL): 145
- dC/dT ([1]; [Ab] 16 µg/mL): 4
- F=the rate of change in glucose concentration in relation to the reference ([1]; [Ab] 32 µg/mL): 5%
- Glucose concentration t=0 ([1]; [Ab] 32 µg/mL): 146
- Glucose concentration t=60 ([1]; [Ab] 32 µg/mL): 150
- Glucose concentration t=120 ([1]; [Ab] 32 µg/mL): 143
- Glucose concentration t=180 ([1]; [Ab] 32 µg/mL): 142
- Glucose concentration t=240 ([1]; [Ab] 32 µg/mL): 137
- dC/dT ([1]; [Ab] 32 µg/mL): 3
- MIC ([2]; Staphylococcus aureus, ATCC29213, S.aureus, 80% threshold of rate of change vs reference, between 60 and 180 minutes, obtained in 4 hours, read-out: MIC Measured): 2 µg/mL (≈ 4.68 µM)
- F=the rate of change in glucose concentration in relation to the reference ([2]; [Ab] 0,5 µg/mL): 96%
- Glucose concentration t=0 ([2]; [Ab] 0,5 µg/mL): 144
- Glucose concentration t=60 ([2]; [Ab] 0,5 µg/mL): 155
- Glucose concentration t=120 ([2]; [Ab] 0,5 µg/mL): 130
- Glucose concentration t=180 ([2]; [Ab] 0,5 µg/mL): 91
- Glucose concentration t=240 ([2]; [Ab] 0,5 µg/mL): 32
- dC/dT ([2]; [Ab] 0,5 µg/mL): 32
- F=the rate of change in glucose concentration in relation to the reference ([2]; [Ab] 0,25 µg/mL): 91%
- Glucose concentration t=0 ([2]; [Ab] 0,25 µg/mL): 143
- Glucose concentration t=60 ([2]; [Ab] 0,25 µg/mL): 152
- Glucose concentration t=120 ([2]; [Ab] 0,25 µg/mL): 132
- Glucose concentration t=180 ([2]; [Ab] 0,25 µg/mL): 91
- Glucose concentration t=240 ([2]; [Ab] 0,25 µg/mL): 33
- dC/dT ([2]; [Ab] 0,25 µg/mL): 31
- F=the rate of change in glucose concentration in relation to the reference ([2]; [Ab] 1 µg/mL): 82%
- Glucose concentration t=0 ([2]; [Ab] 1 µg/mL): 147
- Glucose concentration t=60 ([2]; [Ab] 1 µg/mL): 155
- Glucose concentration t=120 ([2]; [Ab] 1 µg/mL): 133
- Glucose concentration t=180 ([2]; [Ab] 1 µg/mL): 100
- Glucose concentration t=240 ([2]; [Ab] 1 µg/mL): 40
- dC/dT ([2]; [Ab] 1 µg/mL): 28
- F=the rate of change in glucose concentration in relation to the reference ([2]; [Ab] 2 µg/mL): 72%
- Glucose concentration t=0 ([2]; [Ab] 2 µg/mL): 141
- Glucose concentration t=60 ([2]; [Ab] 2 µg/mL): 146
- Glucose concentration t=120 ([2]; [Ab] 2 µg/mL): 143
- Glucose concentration t=180 ([2]; [Ab] 2 µg/mL): 98
- Glucose concentration t=240 ([2]; [Ab] 2 µg/mL): 61
- dC/dT ([2]; [Ab] 2 µg/mL): 24
- F=the rate of change in glucose concentration in relation to the reference ([2]; [Ab] 4 µg/mL): 16%
- Glucose concentration t=0 ([2]; [Ab] 4 µg/mL): 142
- Glucose concentration t=60 ([2]; [Ab] 4 µg/mL): 150
- Glucose concentration t=120 ([2]; [Ab] 4 µg/mL): 143
- Glucose concentration t=180 ([2]; [Ab] 4 µg/mL): 139
- Glucose concentration t=240 ([2]; [Ab] 4 µg/mL): 139
- dC/dT ([2]; [Ab] 4 µg/mL): 6
- F=the rate of change in glucose concentration in relation to the reference ([2]; [Ab] 8 µg/mL): 24%
- Glucose concentration t=0 ([2]; [Ab] 8 µg/mL): 136
- Glucose concentration t=60 ([2]; [Ab] 8 µg/mL): 157
- Glucose concentration t=120 ([2]; [Ab] 8 µg/mL): 160
- Glucose concentration t=180 ([2]; [Ab] 8 µg/mL): 141
- Glucose concentration t=240 ([2]; [Ab] 8 µg/mL): 149
- dC/dT ([2]; [Ab] 8 µg/mL): 8
- F=the rate of change in glucose concentration in relation to the reference ([2]; [Ab] 16 µg/mL): 22%
- Glucose concentration t=0 ([2]; [Ab] 16 µg/mL): 140
- Glucose concentration t=60 ([2]; [Ab] 16 µg/mL): 157
- Glucose concentration t=120 ([2]; [Ab] 16 µg/mL): 152
- Glucose concentration t=180 ([2]; [Ab] 16 µg/mL): 142
- Glucose concentration t=240 ([2]; [Ab] 16 µg/mL): 142
- dC/dT ([2]; [Ab] 16 µg/mL): 8
- F=the rate of change in glucose concentration in relation to the reference ([2]; [Ab] 32 µg/mL): 27%
- Glucose concentration t=0 ([2]; [Ab] 32 µg/mL): 145
- Glucose concentration t=60 ([2]; [Ab] 32 µg/mL): 154
- Glucose concentration t=120 ([2]; [Ab] 32 µg/mL): 145
- Glucose concentration t=180 ([2]; [Ab] 32 µg/mL): 136
- Glucose concentration t=240 ([2]; [Ab] 32 µg/mL): 139
- dC/dT ([2]; [Ab] 32 µg/mL): 9
